According to PubChem BioAssay (NCI):
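Five compound concentrations were applied to cells in 96-well plates for 48 hours; endpoints were derived by simple linear interpolation of the resulting dose-response curve. At the GI50, growth is halved. TGI: total growth inhibition.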

How the values were obtained:
Assay in all cases: growth of human tumour cells (NCI), 48 h
SW-620 colon = system: SW-620 colon
MALME-3M melanoma = system: MALME-3M melanoma
OVCAR-5 ovarian = system: OVCAR-5 ovarian
DU-145 prostate = system: DU-145 prostate
HCC-2998 colon = system: HCC-2998 colon
A498 renal = system: A498 renal
SK-MEL-2 melanoma = system: SK-MEL-2 melanoma
SF-539 CNS = system: SF-539 CNS
SK-MEL-5 melanoma = system: SK-MEL-5 melanoma
HT29 colon = system: HT29 colon
EKVX NSCLC = system: EKVX NSCLC
HS 578T breast = system: HS 578T breast
HCT-116 colon = system: HCT-116 colon
RXF 393 renal = system: RXF 393 renal
786-0 renal = system: 786-0 renal
PC-3 prostate = system: PC-3 prostate
COLO 205 colon = system: COLO 205 colon
T-47D breast = system: T-47D breast
UO-31 renal = system: UO-31 renal
MOLT-4 leukemia = system: MOLT-4 leukemia
MDA-MB-231 breast = system: MDA-MB-231 breast
HCT-15 colon = system: HCT-15 colon
SNB-19 CNS = system: SNB-19 CNS
CCRF-CEM leukemia = system: CCRF-CEM leukemia
UACC-257 melanoma = system: UACC-257 melanoma
MDA-MB-435 = system: MDA-MB-435
CAKI-1 renal = system: CAKI-1 renal
SK-OV-3 ovarian = system: SK-OV-3 ovarian
K-562 leukemia = system: K-562 leukemia
NCI-H23 lung = system: NCI-H23 lung
MCF7 breast = system: MCF7 breast
A549 NSCLC = system: A549 NSCLC
SNB-75 CNS = system: SNB-75 CNS
NCI-H226 lung = system: NCI-H226 lung
M14 melanoma = system: M14 melanoma
KM12 colon = system: KM12 colon
HOP-62 NSCLC = system: HOP-62 NSCLC
OVCAR-3 ovarian = system: OVCAR-3 ovarian
SR leukemia = system: SR leukemia
LOX IMVI melanoma = system: LOX IMVI melanoma
NCI/ADR-RES ovarian = system: NCI/ADR-RES ovarian
SF-295 CNS = system: SF-295 CNS
BT-549 breast = system: BT-549 breast
OVCAR-4 ovarian = system: OVCAR-4 ovarian
SK-MEL-28 melanoma = system: SK-MEL-28 melanoma
NCI-H522 lung = system: NCI-H522 lung
OVCAR-8 ovarian = system: OVCAR-8 ovarian
U251 CNS = system: U251 CNS
HOP-92 NSCLC = system: HOP-92 NSCLC
ACHN renal = system: ACHN renal
SF-268 CNS = system: SF-268 CNS
UACC-62 melanoma = system: UACC-62 melanoma
NCI-H460 lung = system: NCI-H460 lung
HL-60(TB) leukemia = system: HL-60(TB) leukemia
TK-10 renal = system: TK-10 renal

Molecule `COc1cc(-c2ccc[nH]2)[nH]c1/C=C1\N=C(C)C(CC(=O)OCC(C)(C)C)=C1C` has a GI50 (SW-620 colon) of 192 nM, a TGI (SW-620 colon) of 1480 nM and a GI50 (MALME-3M melanoma) of 400 nM. It also gave a TGI (MALME-3M melanoma) of 1690 nM, a GI50 (OVCAR-5 ovarian) of 501 nM and a TGI (OVCAR-5 ovarian) of 2310 nM. It also gave a GI50 (DU-145 prostate) of 226 nM, a TGI (DU-145 prostate) of 1530 nM and a GI50 (HCC-2998 colon) of 368 nM. The TGI (HCC-2998 colon) was 1750 nM, the GI50 (A498 renal) was 163 nM and the TGI (A498 renal) was 867 nM. It also gave a GI50 (SK-MEL-2 melanoma) of 157 nM, a TGI (SK-MEL-2 melanoma) of 415 nM and a GI50 (SF-539 CNS) of 357 nM. For the same molecule, the TGI (SF-539 CNS) was 1600 nM, the GI50 (SK-MEL-5 melanoma) was 137 nM and the TGI (SK-MEL-5 melanoma) was 279 nM. It also gave a GI50 (HT29 colon) of 172 nM, a TGI (HT29 colon) of 1170 nM and a GI50 (EKVX NSCLC) of 90.3 nM. It also gave a TGI (EKVX NSCLC) of 1700 nM, a GI50 (HS 578T breast) of 256 nM and a TGI (HS 578T breast) of 1910 nM. For the same molecule, the GI50 (HCT-116 colon) was 181 nM, the TGI (HCT-116 colon) was 1150 nM and the GI50 (RXF 393 renal) was 258 nM. It also gave a TGI (RXF 393 renal) of 1210 nM, a GI50 (786-0 renal) of 300 nM and a TGI (786-0 renal) of 1530 nM. It also gave a GI50 (PC-3 prostate) of 100 nM, a TGI (PC-3 prostate) of 1650 nM and a GI50 (COLO 205 colon) of 206 nM. The TGI (COLO 205 colon) was 1220 nM, the GI50 (T-47D breast) was 157 nM and the TGI (T-47D breast) was 887 nM. The GI50 (UO-31 renal) was 173 nM, the TGI (UO-31 renal) was 382 nM and the GI50 (MOLT-4 leukemia) was 242 nM. The TGI (MOLT-4 leukemia) was 1320 nM, the GI50 (MDA-MB-231 breast) was 104 nM and the TGI (MDA-MB-231 breast) was 1530 nM. It also gave a GI50 (HCT-15 colon) of 211 nM, a TGI (HCT-15 colon) of 1120 nM and a GI50 (SNB-19 CNS) of 468 nM. It also gave a TGI (SNB-19 CNS) of 2510 nM, a GI50 (CCRF-CEM leukemia) of 62.5 nM and a TGI (CCRF-CEM leukemia) of 2120 nM. For the same molecule, the GI50 (UACC-257 melanoma) was 339 nM, the TGI (UACC-257 melanoma) was 1520 nM and the GI50 (MDA-MB-435) was 282 nM. For the same molecule, the TGI (MDA-MB-435) was 1200 nM, the GI50 (CAKI-1 renal) was 263 nM and the TGI (CAKI-1 renal) was 1130 nM. For the same molecule, the GI50 (SK-OV-3 ovarian) was 442 nM, the TGI (SK-OV-3 ovarian) was 2020 nM and the GI50 (K-562 leukemia) was 340 nM. For the same molecule, the TGI (K-562 leukemia) was 1370 nM, the GI50 (NCI-H23 lung) was 441 nM and the TGI (NCI-H23 lung) was 2220 nM. The GI50 (MCF7 breast) was 175 nM, the TGI (MCF7 breast) was 1250 nM and the GI50 (A549 NSCLC) was 244 nM. It also gave a TGI (A549 NSCLC) of 1240 nM, a GI50 (SNB-75 CNS) of 228 nM and a TGI (SNB-75 CNS) of 903 nM. The GI50 (NCI-H226 lung) was 176 nM, the TGI (NCI-H226 lung) was 736 nM and the GI50 (M14 melanoma) was 212 nM. It also gave a TGI (M14 melanoma) of 658 nM, a GI50 (KM12 colon) of 267 nM and a TGI (KM12 colon) of 1760 nM. The GI50 (HOP-62 NSCLC) was 218 nM, the TGI (HOP-62 NSCLC) was 1380 nM and the GI50 (OVCAR-3 ovarian) was 254 nM. The TGI (OVCAR-3 ovarian) was 1150 nM, the GI50 (SR leukemia) was 122 nM and the TGI (SR leukemia) was 617 nM. The GI50 (LOX IMVI melanoma) was 73.3 nM, the TGI (LOX IMVI melanoma) was 467 nM and the GI50 (NCI/ADR-RES ovarian) was 357 nM. The TGI (NCI/ADR-RES ovarian) was 1460 nM, the GI50 (SF-295 CNS) was 171 nM and the TGI (SF-295 CNS) was 510 nM. It also gave a GI50 (BT-549 breast) of 286 nM, a TGI (BT-549 breast) of 1870 nM and a GI50 (OVCAR-4 ovarian) of 331 nM. It also gave a TGI (OVCAR-4 ovarian) of 2060 nM, a GI50 (SK-MEL-28 melanoma) of 305 nM and a TGI (SK-MEL-28 melanoma) of 1340 nM. The GI50 (NCI-H522 lung) was 230 nM, the TGI (NCI-H522 lung) was 1510 nM and the GI50 (OVCAR-8 ovarian) was 321 nM. It also gave a TGI (OVCAR-8 ovarian) of 1440 nM, a GI50 (U251 CNS) of 141 nM and a TGI (U251 CNS) of 1230 nM. For the same molecule, the GI50 (HOP-92 NSCLC) was 110 nM, the TGI (HOP-92 NSCLC) was 531 nM and the GI50 (ACHN renal) was 287 nM. The TGI (ACHN renal) was 965 nM, the GI50 (SF-268 CNS) was 288 nM and the TGI (SF-268 CNS) was 1840 nM. For the same molecule, the GI50 (UACC-62 melanoma) was 211 nM, the TGI (UACC-62 melanoma) was 555 nM and the GI50 (NCI-H460 lung) was 137 nM. For the same molecule, the TGI (NCI-H460 lung) was 1350 nM, the GI50 (HL-60(TB) leukemia) was 239 nM and the TGI (HL-60(TB) leukemia) was 801 nM. For the same molecule, the GI50 (TK-10 renal) was 326 nM and the TGI (TK-10 renal) was 1190 nM.
